Three substances from patent publication US20260226128A1, “Capped Peptides and Methods for Using the Same” (The Board of Trustees of the Leland Stanford Junior …, priority 2023, published 2026) can be followed below.

Experiment [1] concerns diet-induced obese mice. The experiment can be described thus: Single dose in diet-induced obese mice, metabolic chambers (CAP-GDF15 experiments). Type of experiment: in vivo, mouse. The note with it: single dose 50 mg/kg intraperitoneally. The method, then: (§1) FIG. 5. Functional studies of CAP-GDF15 in feeding and energy balance in mice. […] (B) Representative extracted ion chromatogram and (C) mirror tandem fragmentation spectra of CAP-GDF15 (pGlu-[…]-NH2; +2 ion m/z=682.4) and the endogenous plasma peak. (D) Food intake, (E) respiratory exchange ratio (RER), and (F) ambulatory activity of 12-16-week diet-induced obese male mice following a single treatment of CAP-GDF15 (50 mg/kg, intraperitoneal) or vehicle control. (G) Food intake, (H) RER, and (I) ambulatory activity of 12-16-week diet-induced obese male mice following a single treatment of scrambled CAP-GDF15 (50 mg/kg, intraperitoneal, scrambled sequence: pGlu-[…]-NH2) or vehicle control. (J) 3-day food intake and (K) body weight of 12-16-week diet-induced obese male mice following treatment with CAP-GDF15 or scrambled CAP-GDF15 (50 mg/kg/day, IP), or vehicle control. Data are shown as means #SEM. For (D-F), N=12/group; for (G-I), N=8/group; for (J,K), N=7/group. For (D-1), injection occurred at time T=0 (5:00 μm) and data was collected for the following 16 hrs. For (D-K), ** P<0.01, *** P<0.001 by two-way ANOVA.
FIG. 6. Additional measurements from metabolic chambers of mice treated with CAP-GDF15. (A) VO2 and (B) VCO2 of 12-16-week diet-induced obese male mice following a single treatment of CAP-GDF15 (50 mg/kg, intraperitoneal) or vehicle control. (C) VO2 and (D) VCO2 of 12-16-week diet-induced obese male mice following a single treatment of scrambled CAP-GDF15 (50 mg/kg, intraperitoneal, scrambled sequence: p[…]-NH2) or vehicle control. Data are shown as means±SEM. For (A-B), N=12/group; for (C-D), N=8/group. For (A-D), injection occurred at time T=0 (5:00 μm) and data was collected for the subsequent 16 hrs.
To test this possibility, we administered a single dose of CAP-GDF15 (50 mg/kg, intraperitoneally) to diet-induced obese mice and measured whole body parameters of energy balance in metabolic chambers.
We next synthesized a control CAP-GDF15 peptide that preserved amino acid composition but scrambled the intervening amino acid sequence (scrambled CAP-GDF15, pGlu-[…]-NH2). […] We conclude that the hypophagic effects of CAP-GDF15 are specific to this amino acid sequence.
(§2) Mice and treatments. Animal experiments were performed according to a procedure approved by the Stanford University Administrative Panel on Laboratory Animal Care. Mice were maintained in 12-h light-dark cycles at 22° C. and about 50% relative humidity and fed a standard irradiated rodent diet. Where indicated, a high-fat diet (D12492, Research Diets 60% kcal from fat) was used. Male C57BL/6J (stock number 000664) and male C57BL/6J DIO mice were purchased from the Jackson Laboratory (stock number 380050). For studies in high fat diet-fed mice, peptides were dissolved in 18:1:1 (by volume) of saline: Kolliphor EL (Sigma Aldrich): DMSO and administered to mice by intraperitoneal injections at a volume of 10 μl/g at the indicated doses for the indicated times. For lipopolysaccharide injection, LPS was dissolved in saline and administered to mice at a volume of 5 μl/g at indicated dose. For fasting, food was removed from mice for 16 h. For running, a six-lane Columbus Instruments animal treadmill (product 1055-SRM-D65) was used with following 1 h protocol: 10 min at 6 m/min, 50 min at 18 m/min, and increase every 2 min by 2 m/min for the last 10 minutes, all at 12° incline. For all treatment experiments, mice were mock injected with the vehicle for 3-5 days until body weights were stabilized. Heparin plasm was harvested by submandibular bleed. For all experiments, mice were randomly assigned to treatment groups. Experimenters were not blinded to groups.
Metabolic chamber studies. For acute energy expenditure studies, food intake, RER, movement, VO2, and VCO2 were collected with CLAMS Oxymax Metabolic Cages. Mice were placed individual metabolic cages for 24 hours prior to experiment. […]

For experiment [2], the system named is diet-induced obese mice. The experiment in a line: Three-day daily dosing in diet-induced obese mice, food intake and body weight. Type of experiment: in vivo, mouse. Particulars: 50 mg/kg/day, IP, 3 days, versus vehicle control. The method, then: as §1
Lastly, to determine whether the acute hypophagic effects of CAP-GDF15 would lead to long-term suppression of feeding and obesity, we administered CAP-GDF15 or scrambled CAP-GDF15 (50 mg/kg/day, IP), or vehicle control to diet-induced obese mice. Food intake and body weight were monitored over a three-day period. […] Importantly, mice treated with the scrambled CAP-GDF15 peptide were indistinguishable in body weight or food intake from control mice (FIGS. 5J-5K).
as §2, with “For all treatment experiments, mice were mock injected with the vehicle for 3-5 days until body weights were stabilized. Heparin plasm was harvested by submandibular bleed. For all experiments, mice were randomly assigned to treatment groups. Experimenters were not blinded to groups.” left out

The test system of a further experiment is GH3 cells. The experiment can be described thus: Growth hormone secretion from GH3 cells (ELISA of media). The experiment is classed as cell-based, rat. The note with it: 10 μM. The method, then:
FIG. 13. Functional screen in GH3 cells identifies CAP-WNT9A as a growth hormone secretagogue in vitro. (A) Z-score of media growth hormone concentration with 1 hour treatment of 10 μM of 100% conserved capped peptides growth hormone secretagogue activity in GH3 cells (N=1 for all peptides and N=3 for DMSO). (B) Media growth hormone concentration with 1 hour treatment of 10 μM CAP-WNT9A or DMSO (N=3/group). (Error bars are SEM.)
In a functional screen in GH3 cells, a rat pituitary cell line, various capped peptides are shown to activate growth hormone secretion (FIG. 13A).
In vitro studies. GH3 cells (rat pituitary cell line, ATCC cat. #CCL-82.1) were cultured in F-12K medium with 2.5% fetal bovine serum and 15% horse serum. GH3 cells were washed, resuspended in Krebs Ringer Hepes Buffer, diluted to 0.5 million cells/mL, and aliquoted into tubes (300 μL/sample). The GH3 cells were then starved for 60 minutes in Krebs Ringer Hepes Buffer. The capped peptides (N=1 in screen and N=3 in repeat with CAP-WNT9A) or DMSO (N=3) control were added at a 10 μM final concentration. GH3 cells were incubated for 1 hour. Cells were pelleted with 5 min centrifuge spin at 500×g at 4 C. Grown hormone was measured in the supernatant with an ELISA kit (Thermo Cat #KRC5311) according to product protocol. Z-score of growth hormone concentration is shown. […]

On to “pGlu-GLEALRARLRV-NH2 (HELM PEPTIDE1{[Glp].G.L.E.A.L.R.A.R.L.R.V.[am]}$$$$V2.0; SMILES CC(C)C[C@H](NC(=O)CNC(=O)[C@@H]1CCC(=O)N1)C(=O)N[C@@H](CCC(=O)O)C(=O)N[C@@H](C)C(=O)N[C@@H](CC(C)C)C(=O)N[C@@H](CCCNC(=N)N)C(=O)N[C@@H](C)C(=O)N[C@@H](CCCNC(=N)N)C(=O)N[C@@H](CC(C)C)C(=O)N[C@@H](CCCNC(=N)N)C(=O)N[C@H](C(N)=O)C(C)C) [scrambled CAP-GDF15, reference compound]”, for which the “respiratory exchange ratio (RER)” value in the experiment on diet-induced obese mice [1] (16 hrs after injection) is “completely ineffective”. Further, the “food intake, effect in words” value in the experiment with diet-induced obese mice [1] (identical experimental conditions) is “completely ineffective”. Further, in the experiment on diet-induced obese mice [2], the “body weight over three-day period” value is listed as “indistinguishable” and the “food intake over three-day period” value is given as “indistinguishable”.
As for “pGlu-LELRLRVAAGR-NH2 (HELM PEPTIDE1{[Glp].L.E.L.R.L.R.V.A.A.G.R.[am]}$$$$V2.0; SMILES CC(C)C[C@H](NC(=O)[C@@H]1CCC(=O)N1)C(=O)N[C@@H](CCC(=O)O)C(=O)N[C@@H](CC(C)C)C(=O)N[C@@H](CCCNC(=N)N)C(=O)N[C@@H](CC(C)C)C(=O)N[C@@H](CCCNC(=N)N)C(=O)N[C@H](C(=O)N[C@@H](C)C(=O)N[C@@H](C)C(=O)NCC(=O)N[C@@H](CCCNC(=N)N)C(N)=O)C(C)C) [CAP-GDF15, 12-mer capped peptide from amino acids 174-185 of mouse GDF15 prepropeptide region]”, in the experiment on diet-induced obese mice [1], the “carbon dioxide production (VCO2)” value was “did not alter”, the “movement (ambulatory activity)” value is reported as “did not alter” and the “oxygen consumption (VO2)” value is recorded as “did not alter”. In addition, in the experiment with diet-induced obese mice [1] (16 hrs after injection), the “respiratory exchange ratio (RER)” value is listed as “suppression of respiratory exchange ratio (RER) was also observed” and the “suppression of food intake compared to vehicle-treated mice” value was ~ 60%. In the experiment on diet-induced obese mice [2], the “body weight over three-day period” value was “increasing reduction in body weight” and the “food intake over three-day period” value is reported as “durable suppression of food intake”.
With “pGlu-WGGCGDNLKYSSKFVEFL-NH2 (HELM PEPTIDE1{[Glp].W.G.G.C.G.D.N.L.K.Y.S.S.K.F.V.E.F.L.[am]}$$$$V2.0; SMILES CC(C)C[C@H](NC(=O)[C@H](Cc1ccccc1)NC(=O)[C@H](CCC(=O)O)NC(=O)[C@@H](NC(=O)[C@H](Cc1ccccc1)NC(=O)[C@H](CCCCN)NC(=O)[C@H](CO)NC(=O)[C@H](CO)NC(=O)[C@H](Cc1ccc(O)cc1)NC(=O)[C@H](CCCCN)NC(=O)[C@H](CC(C)C)NC(=O)[C@H](CC(N)=O)NC(=O)[C@H](CC(=O)O)NC(=O)CNC(=O)[C@H](CS)NC(=O)CNC(=O)CNC(=O)[C@H](Cc1c[nH]c2ccccc12)NC(=O)[C@@H]1CCC(=O)N1)C(C)C)C(N)=O) [CAP-WNT9A, top hit of growth hormone secretagogue screen]”, in the experiment with GH3 cells (1 hour treatment, N=1), the “growth hormone secretagogue activity in screen (Z-score of media growth hormone concentration)” value was “highest growth hormone secretagogue activity”. The “growth hormone concentration in media versus DMSO” value in the experiment on GH3 cells (one hour treatment, N=3) is recorded as “increased by four times”.
